Measured values published in the RepoRT retention time repository (doi:10.1016/j.foodchem.2021.129757).

Columns and labels:
Conditions in all cases: stereoisomer not certain
[1] = RP, 150 × 2.1 mm, 2.6 µm, 40 °C, 0.35 mL/min, estimated dead time 0.94 min; A: water + 0.1% formic acid, pH 3; B: acetonitrile + 0.1% formic acid, pH 3; gradient (min/%B) 0/0 1/0 12.5/100 14/100 14.2/0 15/0
[2] = RP, 150 × 2.1 mm, 2.6 µm, 40 °C, 0.35 mL/min, estimated dead time 0.94 min; A: water + 0.1% formic acid, pH 3; B: acetonitrile + 0.1% formic acid, pH 3; gradient (min/%B) 0/0 1/5 7/45 8.5/80 10.5/80 11/5 12/5
[3] = RP, Phenomenex Kinetex EVO C18, 100 × 2.1 mm, 2.6 µm, 40 °C, 0.4 mL/min, estimated dead time 0.55 min; A: water + 0.2% formic acid; B: acetonitrile + 0.2% formic acid; gradient (min/%B) 0/5 0.5/5 7/95 8/95 8.5/5 12/5
[4] = RP, Merck Supelco SUPELCOSIL LC-C18, 250 × 4.6 mm, 5 µm, 40 °C, 1 mL/min, estimated dead time 2.6 min; A: water + 0.1% trifluoroacetic acid, pH 2; B: acetonitrile + 0.1% trifluoroacetic acid, pH 2; gradient (min/%B) 0/5 45/35 47/75 49/35 50/5
[5] = RP, Waters Atlantis T3, 100 × 2.1 mm, 3 µm, 40 °C, 0.3 mL/min, estimated dead time 0.73 min; A: water + 0.1% trifluoroacetic acid, pH 2; B: acetonitrile + 0.1% trifluoroacetic acid, pH 2; gradient (min/%B) 0/10 1/10 6/40 7/50 8/50 14/70 16/80 20/10 25/10
[6] = Other, Phenomenex Kinetex PFP, 100 × 4.6 mm, 5 µm, 45 °C, 0.6 mL/min, estimated dead time 1.8 min; A: water + 0.1% trifluoroacetic acid, pH 2; B: methanol; gradient (min/%B) 0/40 20/72 21/40
[7] = RP, Agilent ZORBAX RRHD Eclipse Plus C18, 50 × 2.1 mm, 1.8 µm, 30 °C, 0.4 mL/min, estimated dead time 0.28 min; A: water + 0.1% formic acid, pH 3; B: acetonitrile + 0.1% formic acid, pH 3; gradient (min/%B) 0/1 5/10 8/25 9.1/99 10/99 12/1
[8] = RP, Agilent ZORBAX RRHD Eclipse Plus C18, 50 × 2.1 mm, 1.8 µm, 30 °C, 0.4 mL/min, estimated dead time 0.28 min; A: water + 0.1% formic acid, pH 3; B: acetonitrile + 0.1% formic acid, pH 3; gradient (min/%B) 0/1 5/10 8/25 9.1/99 10/99 12/99
[9] = RP, Phenomenex Synergi Hydro-RP, 250 × 2 mm, 4 µm, 25 °C, 0.2 mL/min, estimated dead time 2.5 min; A: water + 0.1% formic acid, pH 3; B: acetonitrile + 0.1% formic acid, pH 3; gradient (min/%B) 0/0.5 7/0.5 12/12.5 25/16.3 47/35 48/65 50/65 50.1/0.5
[10] = RP, Merck LiChrospher RP-18, 250 × 4 mm, 5 µm, 35 °C, 0.3 mL/min, estimated dead time 6.7 min; A: water + 0.5% formic acid; B: acetonitrile + 0.5% formic acid; gradient (min/%B) 0/5 10/5 30/15 45/20 65/20 95/54 110/63 115/5 135/5
[11] = RP, Waters ACQUITY UPLC BEH Shield RP18, 150 × 2.1 mm, 1.7 µm, 40 °C, 0.4 mL/min, estimated dead time 0.83 min; A: water + 0.1% formic acid, pH 3; B: acetonitrile + 0.1% formic acid, pH 3; gradient (min/%B) 0/0 30/50 31/100 37/100 37.1/0
[12] = RP, Agilent InfinityLab Poroshell 120 EC-C18, 100 × 3 mm, 2.7 µm, 25 °C, 0.4 mL/min, estimated dead time 1.1 min; A: water + 0.1% formic acid, pH 3; B: acetonitrile + 0.1% formic acid, pH 3; gradient (min/%B) 0/5 10/25 20/40 24/90 25/90 26/5 30/5
[13] = RP, Waters ACQUITY UPLC HSS T3, 100 × 2.1 mm, 50 °C; A: water + 0.1% formic acid, pH 3; B: 30% methanol + 70% acetonitrile + 0.1% formic acid, pH 3; gradient (min/%B) 0/5 1/8 2/15 3/40 4/70 4.5/100 5/100 6.4/100 6.6/5 6.8/5 7/5
[14] = RP, Agilent ZORBAX Eclipse XDB-C18, 100 × 2.1 mm, 1.8 µm, 50 °C, 0.4 mL/min, estimated dead time 0.55 min; A: water + 0.1% formic acid, pH 3; B: methanol + 0.1% formic acid, pH 3; gradient (min/%B) 0/2 10/100 14.5/100 14.51/2 16.5/2
[15] = RP, Waters ACQUITY UPLC BEH C18, 100 × 2.1 mm, 1.7 µm, 65 °C, 0.4 mL/min, estimated dead time 0.55 min; A: water + 0.1% formic acid, pH 3; B: 80% acetonitrile + 20% acetone + 0.1% formic acid, pH 3; gradient (min/%B) 0/0 5/100 5.5/0 6/0
[16] = RP, Waters ACQUITY UPLC HSS T3, 100 × 2.1 mm, 1.8 µm, 30 °C, 0.4 mL/min, estimated dead time 0.55 min; A: water + 0.1% formic acid, pH 3; B: acetonitrile + 0.1% formic acid, pH 3; gradient (min/%B) 0/0 2/0 15/100 22/100 22.1/0 26/0
[17] = RP, Phenomenex Luna C18, 150 × 4.6 mm, 3 µm, 25 °C, 0.5 mL/min, estimated dead time 3.2 min; A: water + 0.1% formic acid, pH 3; B: acetonitrile + 0.1% formic acid, pH 3; gradient (min/%B) 0/0 30/30 35/40 50/80 52/80 60/0 65/0
[18] = RP, Waters ACQUITY UPLC BEH Shield RP18, 100 × 2.1 mm, 1.7 µm, 30 °C, 0.6 mL/min, estimated dead time 0.37 min; A: water + 0.1% formic acid, pH 3; B: acetonitrile + 0.1% formic acid, pH 3; gradient (min/%B) 0/0 2/0 7/10 22/95 22.1/0 26/0

O=C(OC1Cc2c(O)cc(O)cc2OC1c1cc(O)c(O)c(O)c1)c1cc(O)c(O)c(O)c1 (single isomer, unassigned; (-)) [(-)-Epigallocatechin gallate]
LC retention time [1]: 5.08 min
LC retention time [2]: 5.02 min
LC retention time [3]: 4.38 min
LC retention time [4]: 16.9 min
LC retention time [5]: 6.14 min

O=C(C=Cc1ccc(O)c(O)c1)OC1CC(OC(=O)C=Cc2ccc(O)c(O)c2)(C(=O)O)CC(O)C1O (centres undefined) [1,3-dicaffeoylquinic acid]
LC retention time [4]: 19.1 min

O=C(O)c1ccc(O)c(O)c1O [2,3,4-Trihydroxybenzoic acid]
LC retention time [6]: 4.34 min
LC retention time [4]: 8.9 min

O=C(O)c1cccc(O)c1 [3-Hydroxybenzoic acid]
LC retention time [6]: 5.57 min
LC retention time [7]: 5.36 min
LC retention time [8]: 4.26 min
LC retention time [9]: 22.7 min
LC retention time [5]: 5.01 min

O=c1cc(-c2ccc(O)cc2)oc2cc(O)cc(O)c12 [Apigenin]
LC retention time [10]: 97 min
LC retention time [11]: 23.6 min
LC retention time [4]: 43.2 min
LC retention time [12]: 16.3 min
LC retention time [5]: 10.1 min

O=c1cc(-c2ccccc2)oc2cc(O)cc(O)c12 [Chrysin]
LC retention time [4]: 39.4 min
LC retention time [12]: 22.2 min

O=C(O)C=Cc1ccccc1 [Cinnamic acid-trans]
LC retention time [13]: 2.74 min
LC retention time [10]: 92.9 min
LC retention time [14]: 6.27 min
LC retention time [15]: 2.79 min
LC retention time [11]: 16.2 min
LC retention time [7]: 9.09 min
LC retention time [4]: 35.6 min
LC retention time [9]: 46.7 min

O=C(C=Cc1ccc(O)c(O)c1)OC1C(O)CC(O)(C(=O)O)CC1O (centres undefined) [Cryptochlorogenic acid]
LC retention time [1]: 4.63 min
LC retention time [2]: 4.45 min
LC retention time [4]: 14.1 min

OCC1OC(Oc2cc3c(OC4OC(CO)C(O)C(O)C4O)cc(O)cc3[o+]c2-c2ccc(O)c(O)c2)C(O)C(O)C1O (centres undefined) [Cyanidin-3,5-O-diglucoside]
LC retention time [4]: 16.4 min

O=c1c(-c2ccc(O)cc2)coc2cc(O)ccc12 [Daidzein]
LC retention time [16]: 10.7 min
LC retention time [15]: 2.53 min
LC retention time [11]: 17.9 min
LC retention time [4]: 34.6 min
LC retention time [12]: 12.9 min

O=c1cc2oc(-c3cc(O)c(O)c(O)c3)c(O)cc-2c(O)c1 [Delphinidin]
LC retention time [6]: 8.44 min
LC retention time [4]: 25.1 min

O=c1oc2c(O)c(O)cc3c(=O)oc4c(O)c(O)cc1c4c23 [Ellagic acid]
LC retention time [17]: 14.2 min
LC retention time [10]: 60.3 min
LC retention time [15]: 1.91 min
LC retention time [18]: 13.1 min
LC retention time [4]: 24.8 min
LC retention time [12]: 8.97 min
LC retention time [5]: 7.94 min

O=C(OC1Cc2c(O)cc(O)cc2OC1c1ccc(O)c(O)c1)c1cc(O)c(O)c(O)c1 (centres undefined) [Epicatechin gallate]
LC retention time [6]: 5.76 min
LC retention time [1]: 5.67 min
LC retention time [2]: 5.72 min
LC retention time [10]: 58.6 min
LC retention time [16]: 9.36 min

O=C1CC(c2ccc(O)c(O)c2)Oc2cc(O)cc(O)c21 (centres undefined) [Eriodictyol]
LC retention time [6]: 15.4 min
LC retention time [1]: 6.95 min
LC retention time [2]: 7.21 min
LC retention time [10]: 88.7 min
LC retention time [16]: 10.9 min
LC retention time [15]: 2.59 min
LC retention time [12]: 13.7 min

O=c1c(O)c(-c2ccc(O)c(O)c2)oc2cc(O)ccc12 [Fisetin]
LC retention time [16]: 10.2 min
LC retention time [4]: 30.9 min

O=C(O)c1cc(O)ccc1O [Gentisic acid]
LC retention time [1]: 4.7 min
LC retention time [2]: 4.37 min
LC retention time [16]: 8.3 min
LC retention time [14]: 2.85 min
LC retention time [11]: 6.28 min
LC retention time [7]: 4.25 min
LC retention time [8]: 2.82 min
LC retention time [4]: 12.5 min
LC retention time [12]: 5.44 min
LC retention time [9]: 19.9 min

OCC1OC(Oc2cc3c(O)cc(O)cc3[o+]c2-c2ccc(O)cc2)C(O)C(O)C1O (centres undefined) [Pelargonidin-3-O-glucoside]
LC retention time [4]: 23.4 min

CC1OC(OCC2OC(Oc3cc4c(O)cc(=O)cc-4oc3-c3ccc(O)cc3)C(O)C(O)C2O)C(O)C(O)C1O (centres undefined) [Pelargonidin-3-O-rutinoside]
LC retention time [4]: 24.3 min

COc1cc(-c2[o+]c3cc(O)cc(O)c3cc2OC2OC(CO)C(O)C(O)C2O)ccc1O (centres undefined) [Peonidin-3-O-glucoside]
LC retention time [4]: 24.8 min

COc1cc(-c2[o+]c3cc(O)cc(O)c3cc2OC2OC(CO)C(O)C(O)C2O)cc(O)c1O (centres undefined) [Petunidin-3-O-glucoside]
LC retention time [4]: 22.3 min

O=C(O)C1OC(Oc2c(-c3ccc(O)c(O)c3)oc3cc(O)cc(O)c3c2=O)C(O)C(O)C1O (centres undefined) [Quercetin-3-O-glucuronide]
LC retention time [3]: 4.92 min
LC retention time [11]: 13.7 min
LC retention time [7]: 7.9 min
LC retention time [8]: 8.38 min
LC retention time [4]: 26.2 min

CC1OC(Oc2c(-c3ccc(O)c(O)c3)oc3cc(O)cc(O)c3c2=O)C(O)C(O)C1O (centres undefined) [Quercitrin]
LC retention time [1]: 6.01 min
LC retention time [2]: 6.17 min
LC retention time [4]: 29.4 min
LC retention time [9]: 38.3 min

COc1cc(C(=O)O)cc(OC)c1O [Syringic acid]
LC retention time [1]: 5.04 min
LC retention time [2]: 4.88 min
LC retention time [13]: 3.33 min
LC retention time [15]: 1.8 min
LC retention time [4]: 15.5 min
LC retention time [12]: 6.44 min
LC retention time [9]: 23.1 min
LC retention time [5]: 5.12 min

O=C(O)C=Cc1ccccc1O [o-Coumaric acid]
LC retention time [1]: 6.29 min
LC retention time [2]: 6.36 min
LC retention time [10]: 74.4 min
LC retention time [11]: 12.7 min
LC retention time [7]: 8.32 min
LC retention time [8]: 8.67 min
LC retention time [4]: 25.9 min
LC retention time [9]: 37.5 min
